This note sets out measurements from patent US20120302566A1, “INDANYLOXYDIHYDROBENZOFURANYLACETIC ACIDS” (BOEHRINGER INGELHEIM INTERNATIONAL GMBH, priority 2010, published 2012).

Test [1] deals with T1, human GPR40 receptor (Homo sapiens, UniProt O14842). As to the kind of experiment: Cytosolic calcium measurement using the FLIPR system. The class given is cell-based. The conditions noted are these: FLIPR cytosolic Ca2+ peak height; 1321N1 cells stably expressing human GPR40; read-out: EC50 values on GPR40 determined as described in (A). Here is the method: (A) Cytosolic calcium measurement using the FLIPR system—1321N1 cells stably expressing human GPR40 receptor (Euroscreen, Belgium) were seeded 24 h before the assay in black clear-bottom collagen-coated 384-well plates in culture medium containing 10% FCS, 1% Na-Pyruvate and 400 μg/ml G418. On the assay day, wells were washed twice with 100 μL Krebs Ringer Buffer (KRB) containing 15 mM sodium hydrogencarbonate and 30 mM Hepes leaving 20 μl rest volume per well. Prior to stimulation the cells were loaded with the Ca^2+-sensitive fluorescent dye from the Calcium4 Assay Kit™ according to the Manufacturer's description (MDS Analytical technologies, Ismaning, Germany) for 80 min at room temperature in the dark, in the presence of 4 mM probenicid. Changes in cytosolic Ca^2+ concentration upon compound addition were monitored using a FLIPR Tetra device (Fluorescence Imaging Plate Reader; MDS Analytical technologies). The peak height of the obtained fluorescence signal was then used to calculate the EC50 values using GraphPad Prism 5 (Graphpad Software Inc, USA) using a sigmoidal curve fitting procedure allowing for a variable hill slope.
T1 sequence (O14842 whole entry): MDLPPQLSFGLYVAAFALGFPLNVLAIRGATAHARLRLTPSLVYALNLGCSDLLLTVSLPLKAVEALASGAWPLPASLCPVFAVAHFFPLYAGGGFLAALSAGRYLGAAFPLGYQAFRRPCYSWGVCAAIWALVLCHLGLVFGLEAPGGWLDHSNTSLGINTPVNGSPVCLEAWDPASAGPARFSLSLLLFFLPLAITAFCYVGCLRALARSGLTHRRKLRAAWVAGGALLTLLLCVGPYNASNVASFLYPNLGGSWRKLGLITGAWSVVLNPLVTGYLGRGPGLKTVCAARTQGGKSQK

Test [2] deals with T1, human GPR40 receptor. The test is described as follows: IP1 accumulation measurements using the IPOne assay system. The class given is cell-based. The conditions noted are these: IP1 accumulation (IPOne HTRF), 1 hour stimulation; 1321N1 cells stably expressing human GPR40; read-out: EC50 values on GPR40 determined as described in (B). Summed up:
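1321N1 cells stably expressing human GPR40 were stimulated with compounds for 1 h at 37° in pH 7.4 HEPES buffer with 50 mM final LiCl. IP1 accumulation was then read by HTRF (IP1-d2/anti-IP1 Tb cryptate) after 1 h lysis at room temperature.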
A general note: TR-FRET usually uses a lanthanide donor and a delayed reading to cut background.

Broadly, the EC50 is the concentration giving half of the maximal effect. For the compound `O=C(O)CC1COc2cc(O[C@@H]3CCc4c(C5CCOCC5)cccc43)ccc21` (stereo partly drawn) [Example 12, {6-[(R)-4-(Tetrahydro-pyran-4-yl)-indan-1-yloxy]-2,3-dihydro-benzofuran-3-yl}-acetic acid], the EC50 in test [1] was 459 nM; in test [2] it was 2690 nM.
With `COC(c1cccc2c1CCC2Oc1ccc2c(c1)OCC2CC(=O)O)C(C)(C)C` (stereo not drawn) [Example 13, {6-[4-(1-Methoxy-2,2-dimethyl-propyl)-indan-1-yloxy]-2,3-dihydro-benzofuran-3-yl}-acetic acid], the EC50 in test [1] came out at 583 nM; in test [2], 43 nM.
On the same counts, the results for `COC(c1cccc2c1CCC2Oc1ccc2c(c1)OC[C@H]2CC(=O)O)C1CCC1` (stereo partly drawn) [Example 14, {(S)-6-[4-(Cyclobutyl-methoxy-methyl)-indan-1-yloxy]-2,3-dihydro-benzofuran-3-yl}-acetic acid] are 364 nM and 125 nM.
Turning to `CC1(C)CCCC1c1cccc2c1CC[C@H]2Oc1ccc2c(c1)OCC2CC(=O)O` (stereo partly drawn) [Example 16, {6-[(R)-4-(2,2-Dimethyl-cyclopentyl)-indan-1-yloxy]-2,3-dihydro-benzofuran-3-yl}-acetic acid], the results for the EC50 in test [1] and in test [2] were 3190 nM and 47 nM, respectively.
On the same counts, the results for `O=C(O)C[C@@H]1COc2cc(O[C@@H]3CCc4c(OC(F)F)cccc43)ccc21` [Example 17, {(S)-6-[(R)-4-Difluoromethoxy-indan-1-yloxy]-2,3-dihydro-benzofuran-3-yl}-acetic acid] are 111 nM and 139 nM.
With `COC1(c2cccc3c2CC[C@H]3Oc2ccc3c(c2)OC[C@H]3CC(=O)O)CCC1` [Example 18, {(S)-6-[(R)-4-(1-Methoxy-cyclobutyl)-indan-1-yloxy]-2,3-dihydro-benzofuran-3-yl}-acetic acid], the EC50 came to 21 nM in test [1] and 162 nM in test [2].
